Results published in patent publication EP3808411A1, “COSMETIC COMPOSITIONS AND USE THEREOF” (Mesoestetic Pharma Group, S.L., priority 2019, dated 2020).
“Also recorded” adds a separate entry of the source.

Tests used:
human dermal fibroblasts = assay: β-galactosidase staining in a model of UVB-induced senescence; assay type: cell-based
Description: (§1) In order to verify the action of the shikimic acid as a protector against the process of cellular senescence induced by Ultraviolet Type-B (UVB) damage, the shikimic acid was tested in a model of UVB-induced senescence in human dermal fibroblasts. In this model, two days after being plated, the cells are irradiated with UVB. After three days, the cells are re-irradiated with UVB. Two days after the second irradiation, the cells are processed for analysis. The shikimic acid is incubated with the cells from 24 h before the first irradiation until the day they are analysed. To assess whether cells are senescent or not, two markers are used. On the one hand, β-galactosidase staining is carried out, which stains the senescent cells blue, since they have an abnormal lysosomal activity at pH 6. Furthermore, the expression of the HAS2 gene is quantified by means of the qPCR technique.

HAS2 gene = HAS2 gene expression by qPCR in a model of UVB-induced senescence; assay type: cell-based, human
Description: as §1

Compound: N#CC(=Cc1ccc(-c2cc(Cl)ccc2Cl)o1)C(=O)Nc1cccc2ncccc12 [AGK2]
- effect of inhibitor on the protective role of shikimic acid on senescence (human dermal fibroblasts; UVB-irradiated cells, 10, 25, 50 mM shikimic acid + AGK2 2 µM, Figures 5 and 6): do not reverse the protective effect of shikimic acid on senescence

Compound: NC(=O)C1CCCc2c1[nH]c1ccc(Cl)cc21 (centres unmarked) [EX-527]
- HAS2 gene expression with shikimic acid + inhibitor (HAS2 gene; UVB-irradiated cells, shikimic acid (SX) + EX-527 1 µM versus SX only, Figure 4): reversed to a lesser extent
- effect of inhibitor on the protective role of shikimic acid on senescence (β-galactosidase staining) (human dermal fibroblasts; UVB-irradiated cells, 10, 25, 50 mM shikimic acid + EX-527 1 µM, Figure 3): capable of reversing the effect of shikimic acid on senescence

Compound: O=C(Nc1ccc(O)c(C(=O)O)c1)c1cccc(NC(=O)c2ccco2)c1 [OSS128167]
- effect of inhibitor on the protective role of shikimic acid on senescence (human dermal fibroblasts; UVB-irradiated cells, 10, 25, 50 mM shikimic acid + OSS128167 200 µM, Figures 7 and 8): do not reverse the protective effect of shikimic acid on senescence

Compound: COC1=C(OC)C(=O)C(CCCCCCCCCCO)=C(C)C1=O [idebenone]
- protection against UVB damage-induced senescence (β-galactosidase staining) (human dermal fibroblasts; UVB-irradiated cells treated with 2.5, 5, 10 µM idebenone, Figure 9): neither of these two comparative compounds is capable of protecting against UVB damage-induced senescence

Compound: O=C(O)CCCCC1CCSS1 (centres unmarked) [lipoic acid]
- protection against UVB damage-induced senescence (β-galactosidase staining) (human dermal fibroblasts; UVB-irradiated cells treated with 50, 100, 200 µM lipoic acid, Figure 10): neither of these two comparative compounds is capable of protecting against UVB damage-induced senescence

Compound: O=C(O)C1=CC(O)C(O)C(O)C1 (centres unmarked) [shikimic acid, 3,4,5-trihydroxy-1-cyclohexene-1-carboxylic acid]
- HAS2 gene expression (HAS2 gene; UVB-irradiated human dermal fibroblasts treated with 10, 25, 50 mM shikimic acid, Figure 2): this decrease is reversed in gene expression
- senescent cells (β-galactosidase staining) (human dermal fibroblasts; UVB-irradiated human dermal fibroblasts treated with 10, 25, 50 mM shikimic acid, Figure 1): this increase in senescence does not occur; also recorded: more effective than other compounds such as idebenone or lipoic acid
